{
  "source": "patent US5602110A",
  "about": "“Method and composition for treating cystic fibrosis” (Case Western Reserve University, priority 1995, dated 1997)",
  "key": {"[1]": {"system": "normal CFTR in 293 cells", "conditions": "forskolin alone; normal type-transfected 293 cells"}, "[2]": {"system": "Calu-3 and 16HBE airway epithelial cells expressing normal CFTR", "test": "36Cl chloride efflux assay in airway epithelial cell lines expressing normal CFTR", "format": "cell-based", "conditions": "100 μM each drug alone; Calu-3 and 16HBE cells", "method": "The nomenclature for cyclic nucleotide phosphodiesterases, as follows, is taken from Beavo (1990).\n(§1) Two independent cell lines, Calu-3 and 16HBE, both derived from airway epithelial cells and both expressing normal CFTR (Shen et al., 1994; Haws et al., 1994; Haws et al., 1992) were assayed for increased Cl transport either by a radioisotopic flux assay or electrophysiologically. Using the method of Venglarik et al. (1990), cells were incubated in a Ringer's solution containing ^36 Cl to allow uptake of isotope into the cells, and then washed to remove external isotopic chloride. Efflux was measured by replacing the incubation solution every 30 seconds and quantitating the amount of ^36 Cl secreted into it. After 6 changes of solution (3 minutes), either drugs or placebos were added to the media. […] Efflux was then measured an additional 12 media changes (6 minutes)."}, "[3]": {"system": "CF nasal polyp epithelial cells homozygous for the ΔF508 mutation", "test": "36Cl chloride efflux assay in primary CF nasal polyp epithelial cells", "format": "cell-based, human", "conditions": "for chloride efflux rate increase (chloride transport) in the CF cells: primary CF nasal polyp cells, isoproterenol 10 μM, milrinone 100 μM or IBMX 100 μM as labelled", "method": "A test was run to confirm that the chloride efflux in primary CF cells (as opposed to CF-T43 cells used above) is mediated by the cAMP-dependent, protein kinase A pathway and not by calcium-dependent chloride channels. Efflux assays were carried out on primary CF cells, being CF nasal polyp epithelial cells homozygous for the ΔF508 mutation. Any significant contribution of calcium-activated chloride channels was ruled out by incubating the cells in BAPTA-AM, and comparing the response induced by ionomycin to that of albuterol combined with milrinone.\nTransformed cell lines often have altered properties relative to the tissues from which they were derived. To determine if the responses seen in the transformed CF-T43 cells were representative of primary tissue cells, primary epithelial cells from CF nasal polyps were assayed for chloride efflux. Tissues were obtained from nasal polypectomies of CF patients and epithelial cells were isolated by digesting cells from basement membrane by collagenase followed by low speed centrifugations. After counting viable cells, cells were plated and assayed in the same way as the CF-T43 cells. A total of 5 such experiments were performed with polyp cells from different, unrelated patients.\nThe effects of these compounds on chloride permeability were measured as the rate of ^36 Cl efflux after stimulation divided by the basal rate, given as rstim /rbas. […] Both CF types are homozygous for the ΔF508 mutation."}, "[4]": {"system": "mutant CFTR in CF epithelial cells", "conditions": "Grubb et al. 1992; cited from earlier work"}, "[5]": {"system": "ΔF508 CFTR in Xenopus laevis oocytes", "conditions": "high concentrations of IBMX with relatively low concentrations of forskolin; cited from earlier work"}, "[6]": {"system": "CF-T43 cells (ΔF508 CFTR)", "test": "36Cl chloride efflux assay in CF-T43 cells", "format": "cell-based", "conditions": "for chloride efflux: agent(s) as labelled, no other drug, FIG. 1, FIG. 2; for effect of added agent on chloride efflux stimulated by isoproterenol and milrinone: added to milrinone and isoproterenol, FIG. 2; for chloride efflux rate increase (chloride transport) in the CF cells: CF-T43, isoproterenol 10 μM, milrinone 100 μM or IBMX 100 μM as labelled", "method": "as §1\nCF-T43 is an SV40 T-antigen transformed cell line derived from a CF nasal turbinate (Jetten, et al., 1989). These cells maintain many of the original epithelial characteristics, including defective cAMP-dependant chloride transport, and have been used as a model for CF airway cells, CF-T43 cells carry and express only the ΔF508 CFTR mutation. […] With reference to FIG. 1, the control efflux contains Hepes-buffered Ringer's solution (HBR) +0.2% dimethylsulfoxide (DMSO), which is the concentration of DMSO in which the drugs were dissolved. The arrow indicates when the drugs were added. Iso means isoproterenol; Mil means milrinone."}, "[7]": {"system": "cellular cAMP in CF-T43 cells", "conditions": "in combination with isoproterenol 10 μM"}, "[8]": {"system": "16HBE cells", "test": "Whole-cell voltage clamp", "format": "cell-based", "method": "Whole-cell voltage clamp was used to confirm that the chloride efflux was consistent with CFTR activation. 16HBE cells were exposed to varying concentrations of milrinone and the membrane potential clamped in increments of 10 mV from -150 mV to +50 mV. The resulting current was then plotted as a function of voltage. […] A linear current/voltage relationship is a characteristic of CFTR activation. If currents are carried by chloride there should be a reduction in current at any given voltage when chloride is replaced by an ion to which CFTR is impermeante, such as gluconate."}, "[9]": {"conditions": "100 μM glibenclamide, CF-T43 cells"}},
  "data": [
    {"smiles": "C=C[C@@]1(C)CC(=O)[C@]2(O)[C@@]3(C)[C@@H](O)CCC(C)(C)[C@@H]3[C@H](O)[C@H](OC(C)=O)[C@@]2(C)O1", "note": "[forskolin]", "values": [
      {"measurement": "activation of chloride efflux", "setting": "[1]", "value": "sufficient to activate"}
    ]},
    {"smiles": "COc1ccc(C2CNC(=O)C2)cc1OC1CCCC1", "note": "(stereo not shown) [rolipram]", "values": [
      {"measurement": "increase in chloride efflux rate", "setting": "[2]", "value": "Only the inhibitors specific for type III phosphodiesterases produced detectable increases"}
    ]},
    {"smiles": "CNCCNS(=O)(=O)c1cccc2cnccc12", "note": "[H-8, N[-2-(methylamino)ethyl]-5-isoquinoline sulfonamide]", "values": [
      {"measurement": "effect of preincubation on the isoproterenol/milrinone chloride efflux response", "setting": "[3]; CF nasal polyp cells preincubated in H-8", "value": "dramatically reduced"}
    ]},
    {"smiles": "CC(C)Cn1c(=O)n(C)c(=O)c2[nH]cnc21", "note": "[IBMX, 3-isobutyl-1-methylxanthine]", "values": [
      {"measurement": "activation of a chloride conductance", "setting": "[4]", "value": "unable to activate a chloride conductance"},
      {"measurement": "increase in chloride efflux rate", "setting": "[2]", "value": "Only the inhibitors specific for type III phosphodiesterases produced detectable increases"},
      {"measurement": "activation of ΔF508 CFTR", "setting": "[5]", "value": "could be activated"},
      {"measurement": "chloride efflux", "setting": "[6]; CF-T43 cells", "value": "not provide an increase in efflux rate"}
    ]},
    {"smiles": "Nc1ncnc2c1ncn2[C@@H]1O[C@@H]2COP(O)(=S)O[C@H]2[C@H]1O", "note": "(stereo partly shown) [Sp-cAMPS, Sp-adenosine 3':5'-cyclic phosphorothioate]", "values": [
      {"measurement": "effect of added agent on chloride efflux stimulated by isoproterenol and milrinone", "setting": "[6]; CF-T43 cells", "value": "enhanced"},
      {"measurement": "chloride efflux", "setting": "[6]; CF-T43 cells", "value": "no effect on chloride efflux"}
    ]},
    {"smiles": "Nc1ncnc2c1ncn2[C@@H]1O[C@@H]2CO[P@@](O)(=S)O[C@H]2[C@H]1O", "note": "[Rp-cAMPS]", "values": [
      {"measurement": "effect of added agent on chloride efflux stimulated by isoproterenol and milrinone", "setting": "[6]; CF-T43 cells", "value": "abolished the increase in chloride efflux"}
    ]},
    {"smiles": "CC(C)NCC(O)c1ccc(O)c(O)c1", "note": "(stereo not shown) [isoproterenol]", "values": [
      {"measurement": "chloride efflux rate increase (chloride transport) in the CF cells", "setting": "[3]", "value": "neither agent alone elicited a rate increase"},
      {"measurement": "chloride efflux rate increase (chloride transport) in the CF cells", "setting": "[6]", "value": "neither agent alone elicited a rate increase"},
      {"measurement": "chloride efflux", "setting": "[6]; CF-T43 cells", "value": "no effect on chloride efflux"}
    ]},
    {"smiles": "Cc1[nH]c(=O)c(C#N)cc1-c1ccncc1", "note": "[milrinone]", "values": [
      {"measurement": "cAMP increase compared with isoproterenol alone", "setting": "[7]", "value": "not significantly above that of isoproterenol alone"},
      {"measurement": "reversal potential of current", "setting": "[8]; all concentrations of milrinone", "value": 0, "unit": "mV"},
      {"measurement": "current when chloride was replaced by gluconate", "setting": "[8]; chloride replaced by gluconate", "value": "reduction of current"},
      {"measurement": "dose dependence of effect on whole-cell current", "setting": "[8]; varying concentrations", "value": "dose-dependent"},
      {"measurement": "current/voltage relationship", "setting": "[8]; varying concentrations of milrinone, clamp -150 mV to +50 mV", "value": "linear"},
      {"measurement": "chloride efflux rate increase (chloride transport) in the CF cells", "setting": "[3]", "value": "neither agent alone elicited a rate increase"},
      {"measurement": "increase in chloride efflux rate", "setting": "[2]", "value": "greatest increase in chloride efflux rate"},
      {"measurement": "chloride efflux rate increase (chloride transport) in the CF cells", "setting": "[6]", "value": "neither agent alone elicited a rate increase"}
    ]},
    {"smiles": "C[C@H](CCC(=O)O)C[C@H](C)C[C@H](C)C(=O)/C=C(\\O)[C@H](C)C[C@H](C)C/C=C/[C@@H](C)[C@@H](O)[C@@H](C)[C@@H](O)C[C@@H]1CC[C@@](C)([C@H]2CC[C@@](C)([C@@H](C)O)O2)O1", "note": "[ionomycin]", "values": [
      {"measurement": "chloride efflux response in the presence of BAPTA-AM", "setting": "[3]; primary CF nasal polyp cells incubated in BAPTA-AM", "value": "eliminated"},
      {"measurement": "chloride efflux response relative to the isoproterenol/milrinone response", "setting": "[6]; CF-T43 cells", "value": "greater than the isoproterenol/milrinone response"},
      {"measurement": "chloride efflux response in the presence of BAPTA-AM", "setting": "[6]; CF-T43 cells, BAPTA-AM added", "value": "eliminated"}
    ]},
    {"smiles": "COc1ccc(Cl)cc1C(=O)NCCc1ccc(S(=O)(=O)NC(=O)NC2CCCCC2)cc1", "note": "[glibenclamide]", "values": [
      {"measurement": "effect on efflux elicited by ionomycin", "setting": "[6]; [9]", "value": "little effect"},
      {"measurement": "inhibition of β-adrenergic agonist/milrinone-stimulated efflux", "setting": "[6]; [9]", "value": "completely inhibited"}
    ]},
    {"smiles": "Nc1cc(-c2ccncc2)c[nH]c1=O", "note": "[amrinone]", "values": [
      {"measurement": "increase in cellular cAMP over baseline", "setting": "[7]; 15 minutes, CF-T43 cells", "value": "same as milrinone"},
      {"measurement": "increase in chloride efflux rate", "setting": "[2]", "value": "greatest increase in chloride efflux rate"}
    ]}
  ]
}
